Experimental data as given in patent publication US20070134261A1, “Effectors of innate immunity” (priority 2001, published 2007).
Values after ≈ are worked out from the molar mass of the structure shown. Where two headings read alike, the source gives them in different places. Marks after values point to notes of the source that are not given here. Residues, ends and D or L forms follow the SMILES beside them. No end group written: not given here.

Experiments:
Salmonella = Salmonella infection in BALB/c mice (viable bacteria in spleen); format: in vivo, mouse; conditions: mouse, in vivo, ip
Procedure: (§1) BALB/c mice were given 1×10^5 Salmonella and cationic peptide (200 μg) by intraperitoneal injection. The mice were monitored for 24 hours at which point they were euthanized, the spleen removed, homogenized and resuspended in PBS and plated on Luria Broth agar plates with Kanamycin (50 μg/ml). The plates were incubated overnight at 37° C. and counted for viable bacteria (Table 49 and 50). CD-1 mice were given 1×10^8 S. aureus in 5% porcine mucin and cationic peptide (200 μg) by intraperitoneal injection (Table 51). The mice were monitored for 3 days at which point they were euthanized, blood removed and plated for viable counts. CD-1 male mice were given 5.8×10^6 CFU EHEC bacteria and cationic peptide (200 μg) by intraperitoneal (IP) injection and monitored for 3 days (Table 52). […] Many of the cationic peptides were shown not to be directly antimicrobial as tested by the Minimum Inhibitory Concentration (MIC) assay (Table 54).

BALB/c mice = test: Lethal endotoxemia in galactosamine-sensitized BALB/c mice; format: in vivo; conditions: 2 μg LPS; peptide 200 μg/mouse = 8 mg/kg IP 15 min after LPS; 48 hours; no peptide 10
[1] = test system: A549 human epithelial cells; test: Induction of chemokines (IL-8, MCP-1) in A549 cells (ELISA); format: cell-based; conditions: peptide 10 ug/ml, 24 hr
Procedure: The murine macrophage cell line RAW 264.7, THP-1 cells (human monocytes), a human epithelial cell line (A549), human bronchial epithelial cells (16HBEo14), and whole human blood were used. HBE cells were grown in MEM with Earle's. THP-1 cells were grown and maintained in RPMI 1640 medium. The RAW and A549 cell lines were maintained in DMEM supplemented with 10% fetal calf serum. […] DMEM was aspirated from cells grown overnight and replaced with fresh medium. After incubation of the cells with peptide, the release of chemokines into the culture supernatant was determined by ELISA (R&D Systems, Minneapolis, Minn.).

[2] = test system: RAW 264.7 mouse macrophage cells; format: cell-based; conditions: Peptide 20 μg/ml; 100 ng/ml E. coli 0111:B4 LPS, 6 h
[3] = format: cell-based
HBE cells = test: WST-1 assay (cell viability); format: cell-based, human
Summary of the method: (§2)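 Both read-outs were colorimetric at OD490 on HBE cells after 24 h with 100 μg of each peptide. The WST-1 assay reported viability through mitochondrial dehydrogenase cleavage of the tetrazolium salt. The LDH assay tested the removed supernatant for enzyme leaked from membrane-damaged cells.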

[4] = test system: human bronchial epithelial cells (HBE); test: LDH release assay (Cytotoxicity Detection Kit); format: cell-based; conditions: 100 μg/ml, 24 hours; no peptide control 1.0 ± 0.05
Summary of the method: as §2

S. Typhimurium SL1344 = test: Intracellular survival/replication of S. Typhimurium SL1344 in IFN-γ-primed RAW cells (gentamicin-resistance assay); format: cell-based, Salmonella Typhimurium; conditions: pretreated with inhibitor 30 min prior to infection (50 μM U 0126, 50 μM PD 98059)
S. aureus = test: Murine S. aureus infection model (CD-1 mice); format: in vivo, mouse; conditions: peptide 200 μg IP; for CFU/ml (blood): 3 days, No Peptide 7.61 ± 1.7 × 10^3; for # Mice Survived (3 days)/Total mice in group: No Peptide 6/8
Procedure: as §1

A549 epithelial cells = test: Human Operon arrays (PRHU04-S1) of A549 cells treated with peptide alone (Tables 31-37, 53); conditions: 50 μg/ml, 4 h
[5] = Staphylococcus aureus, overnight, 96-well plate

CC[C@H](C)[C@H](NC(=O)[C@H](CS)NC(=O)[C@H](CCSC)NC(=O)[C@H](CCCNC(=N)N)NC(=O)[C@@H](N)CCCNC(=N)N)C(=O)N[C@@H](CCCCN)C(=O)N[C@H](C(=O)N[C@@H](CS)C(=O)N[C@H](C(=O)N[C@@H](CCCNC(=N)N)C(=O)NCC(=O)N[C@H](C(=O)N[C@@H](CS)C(=O)N[C@@H](CCCNC(=N)N)C(=O)N[C@@H](CCCNC(=N)N)C(=O)N[C@@H](CCCCN)C(=O)N[C@@H](CS)C(=O)N[C@@H](CCCNC(=N)N)C(=O)N[C@@H](CCCCN)C(=O)O)C(C)C)C(C)C)C(C)C [SEQ ID NO: 26] (H-RRMCIKVCVRGVCRRKCRK-OH; N-terminus and C-terminus assumed)
Viable Bacteria in the Spleen (Salmonella): 7.1 ± 1.37 × 10^4 CFU/ml | Survival (BALB/c mice): 0% | IL-8 [1]: 0.201 ng/mL | Inhibition of TNF-α [2]: 54.9 ± 1.6% | MIC, C. rhod. ([3]; 24 h): 2 µg/mL (≈ 0.851 µM) | MIC, E. coli ([3]; 24 h): 0.5 µg/mL (≈ 0.213 µM) | MIC, EHEC ([3]; 24 h): 0.5 µg/mL (≈ 0.213 µM) | MIC, P. aerug. ([3]; 24 h): 64 µg/mL (≈ 27.2 µM) | MIC, S. aureus ([3]; 24 h): 32 µg/mL (≈ 13.6 µM) | MIC, S. typhim. ([3]; 24 h): 2 µg/mL (≈ 0.851 µM) | OD490 nm (WST-1 cell viability) (HBE cells): 1.42 ± 0.11 OD490 nm | LDH Release (OD490 nm) [4]: 0.93 ± 0.04 OD490 nm

SLPIKHDRLPATS [SEQ ID NO: 15]
Survival (BALB/c mice): 0% | Inhibition of TNF-α [2]: 69.4 ± 0.84% | MIC, C. rhod. ([3]; 24 h): 128 µg/mL | MIC, E. coli ([3]; 24 h): 128 µg/mL | MIC, EHEC ([3]; 24 h): 64 µg/mL | MIC, S. aureus [3, 5]: >

COc1cccc(-c2cc(=O)c3ccccc3o2)c1N [PD 98059]
Effect: bacterial filamentation (bacterial stress) (S. Typhimurium SL1344): Decrease bacterial filamentation (bacterial stress)^c | Effect: number of intracellular S. Typhimurium (S. Typhimurium SL1344): Increase in the number of intracellular S. Typhimurium

DLPAKRGSAPGST (Cationic peptide) [SEQ ID NO: 12, Formula B cationic peptide]
Survival (BALB/c mice): 17% | Inhibition of TNF-α [2]: 52.1 ± 0.38% | MIC, E. coli ([3]; Escherichia coli, overnight, 96-well plate): > | MIC, S. aureus [3, 5]: >

CC[C@H](C)[C@H](NC(=O)[C@H](CCCNC(=N)N)NC(=O)[C@H](CS)NC(=O)[C@H](CC(C)C)NC(=O)[C@@H](N)CC(C)C)C(=O)N[C@H](C(=O)N1CCC[C@H]1C(=O)N[C@H](C(=O)N[C@H](C(=O)N1CCC[C@H]1C(=O)N[C@@H](Cc1c[nH]c2ccccc12)C(=O)N[C@@H](CS)C(=O)N[C@@H](CCCCN)C(=O)O)[C@@H](C)CC)C(C)C)C(C)C [SEQ ID NO: 5] (H-LLCRIVPVIPWCK-OH; N-terminus and C-terminus assumed)
Viable Bacteria in the Spleen (Salmonella): 2.75 ± 0.59 × 10^4 CFU/ml | Survival (BALB/c mice): 17% | CFU/ml (blood) (S. aureus): 3.28 ± 1.7 × 10^3 CFU/ml | # Mice Survived (3 days)/Total mice in group (S. aureus): 4/4 | Inhibition of TNF-α [2]: 65.6 ± 1.6% | MIC, C. rhod. ([3]; 24 h): 64 µg/mL (≈ 41.6 µM) | MIC, E. coli ([3]; 24 h): 128 µg/mL (≈ 83.1 µM) | MIC, EHEC ([3]; 24 h): 64 µg/mL (≈ 41.6 µM) | MIC, S. aureus [3, 5]: >

N#CC(=C(/N)Sc1ccccc1N)/C(C#N)=C(\N)Sc1ccccc1N [U 0126]
Effect: bacterial filamentation (bacterial stress) (S. Typhimurium SL1344): Decrease bacterial filamentation (bacterial stress)^c | Effect: number of intracellular S. Typhimurium (S. Typhimurium SL1344): Increase in the number of intracellular S. Typhimurium

CC[C@H](C)[C@H](NC(=O)CNC(=O)[C@H](CCCNC(=N)N)NC(=O)[C@H](CCSC)NC(=O)[C@H](C)NC(=O)[C@@H](NC(=O)[C@H](CCCNC(=N)N)NC(=O)[C@H](CCCCN)NC(=O)[C@@H](NC(=O)[C@H](CS)NC(=O)[C@@H](NC(=O)[C@@H](N)CCCNC(=N)N)[C@@H](C)O)C(C)C)C(C)C)C(=O)N[C@H](C(=O)N[C@@H](CCCNC(=N)N)C(=O)N[C@@H](CCCCN)C(=O)N[C@@H](CCCNC(=N)N)C(=O)N[C@@H](CS)C(=O)N[C@@H](CCCNC(=N)N)C(=O)O)[C@@H](C)CC [SEQ ID NO: 33] (H-RTCVKRVAMRGIIRKRCR-OH; N-terminus and C-terminus assumed)
IL-8 [1]: 0.328 ng/mL | Inhibition of TNF-α [2]: 62.1 ± 0.08% | MIC, C. rhod. ([3]; 24 h): 64 µg/mL (≈ 29.1 µM) | MIC, E. coli ([3]; 24 h): 16 µg/mL (≈ 7.26 µM) | MIC, EHEC ([3]; 24 h): 8 µg/mL (≈ 3.63 µM) | MIC, S. aureus ([3]; 24 h): 32 µg/mL (≈ 14.5 µM) | MIC, S. typhim. ([3]; 24 h): 16 µg/mL (≈ 7.26 µM) | OD490 nm (WST-1 cell viability) (HBE cells): 1.75 ± 0.21 OD490 nm | LDH Release (OD490 nm) [4]: 1.03 ± 0.05 OD490 nm

CSCC[C@H](NC(=O)CNC(=O)[C@H](CCCNC(=N)N)NC(=O)[C@H](CCSC)NC(=O)[C@H](C)NC(=O)[C@@H](NC(=O)[C@H](CCCCN)NC(=O)[C@@H](NC(=O)[C@H](CS)NC(=O)[C@H](CCC(N)=O)NC(=O)[C@@H](N)CCCCN)C(C)C)C(C)C)C(=O)N[C@@H](C)C(=O)N[C@@H](CC(C)C)C(=O)N[C@@H](CCCNC(=N)N)C(=O)N[C@@H](CCCNC(=N)N)C(=O)N[C@@H](CS)C(=O)N[C@@H](CCCCN)C(=O)O [SEQ ID NO: 30] (H-KQCVKVAMRGMALRRCK-OH; N-terminus and C-terminus assumed)
Viable Bacteria in the Spleen (Salmonella): 5.79 ± 0.43 × 10^3 CFU/ml | IL-8 [1]: 0.284 ng/mL | CFU/ml (blood) (S. aureus): 1.29 ± 0.04 × 10^2 CFU/ml | # Mice Survived (3 days)/Total mice in group (S. aureus): 4/4 | Fold Up regulation of Gene Expression relative to Untreated Cells: Cell cycle gene (S70622) (A549 epithelial cells): 8.5 fold | Fold Up regulation of Gene Expression relative to Untreated Cells: Dehydrogenase (D17793) (A549 epithelial cells): 2.3 fold | Fold Up regulation of Gene Expression relative to Untreated Cells: Forkhead protein (AF042832) (A549 epithelial cells): 14.1 fold | Fold Up regulation of Gene Expression relative to Untreated Cells: Homeobox protein (AC004774) (A549 epithelial cells): 3.2 fold | Fold Up regulation of Gene Expression relative to Untreated Cells: Hypothetical Protein (AK002104) (A549 epithelial cells): 4.7 fold | Fold Up regulation of Gene Expression relative to Untreated Cells: Hypothetical Protein (AL022393) (A549 epithelial cells): 4.4 fold | Fold Up regulation of Gene Expression relative to Untreated Cells: IL-10 Receptor (U00672) (A549 epithelial cells): 2.6 fold | Fold Up regulation of Gene Expression relative to Untreated Cells: KIAA0284 Protein (AB006622) (A549 epithelial cells): 3.4 fold | Fold Up regulation of Gene Expression relative to Untreated Cells: Peroxisome factor (AB013818) (A549 epithelial cells): 3.4 fold | Fold Up regulation of Gene Expression relative to Untreated Cells: Polypeptide (AF105424) (A549 epithelial cells): 2.5 fold | Fold Up regulation of Gene Expression relative to Untreated Cells: Protein (AL050261) (A549 epithelial cells): 3.3 fold | Fold Up regulation of Gene Expression relative to Untreated Cells: Receptor (AF112461) (A549 epithelial cells): 2.4 fold | Fold Up regulation of Gene Expression relative to Untreated Cells: SPR1 protein (AB031480) (A549 epithelial cells): 3.0 fold | Fold Up regulation of Gene Expression relative to Untreated Cells: Transferase (AF038664) (A549 epithelial cells): 12.3 fold | Fold Up regulation of Gene Expression relative to Untreated Cells: Transferase (M63509) (A549 epithelial cells): 2.7 fold | Fold Up regulation of Gene Expression relative to Untreated Cells: Unknown (AL096803) (A549 epithelial cells): 4.8 fold | Fold Up regulation of Gene Expression relative to Untreated Cells: Zinc finger protein (AF061261) (A549 epithelial cells): 2.6 fold | MIC, C. rhod. ([3]; 24 h): 16 µg/mL (≈ 8.09 µM) | MIC, E. coli ([3]; 24 h): 16 µg/mL (≈ 8.09 µM) | MIC, EHEC ([3]; 24 h): 4 µg/mL (≈ 2.02 µM) | MIC, P. aerug. ([3]; 24 h): 128 µg/mL (≈ 64.7 µM) | MIC, S. typhim. ([3]; 24 h): 16 µg/mL (≈ 8.09 µM) | MIC, S. aureus [3, 5]: >
